Like-named read-outs stand apart in the source and are kept apart here. Starred links: 1 amine or outer side, 2 acyl side, 3 side chain; linkers in the order of their positions; H or OH if unused. Non-standard residues stand in square brackets, D forms with d. Groups on a side chain read outwards from the residue. No end group written: not given here. *: point of attachment. C20 diacid = O=C(O)CCCCCCCCCCCCCCCCCCC(=O)*; C18 diacid = O=C(O)CCCCCCCCCCCCCCCCC(=O)*; γGlu = O=C(O)[C@H](CCC(=O)[*:2])N[*:1]; αMeL = CC(C)C[C@](C)(N)C(=O)O; Orn = NCCC[C@H](N)C(=O)O; AEEA = NCCOCCOCC(=O)O; Aib = CC(C)(N)C(=O)O

What all share (assay type): cell-based
The target of test [1] is human GLP1-R (Homo sapiens, UniProt P43220). As to the kind of experiment: GLP1-R internalization assay in HEK293 cells. Particulars: for Internalization % TOP: normalized to maximum concentration of GLP-1 (100%).
Test [2] has as its target T1, hGIPR (Homo sapiens, UniProt P48546).
T1 sequence (P48546 22-466): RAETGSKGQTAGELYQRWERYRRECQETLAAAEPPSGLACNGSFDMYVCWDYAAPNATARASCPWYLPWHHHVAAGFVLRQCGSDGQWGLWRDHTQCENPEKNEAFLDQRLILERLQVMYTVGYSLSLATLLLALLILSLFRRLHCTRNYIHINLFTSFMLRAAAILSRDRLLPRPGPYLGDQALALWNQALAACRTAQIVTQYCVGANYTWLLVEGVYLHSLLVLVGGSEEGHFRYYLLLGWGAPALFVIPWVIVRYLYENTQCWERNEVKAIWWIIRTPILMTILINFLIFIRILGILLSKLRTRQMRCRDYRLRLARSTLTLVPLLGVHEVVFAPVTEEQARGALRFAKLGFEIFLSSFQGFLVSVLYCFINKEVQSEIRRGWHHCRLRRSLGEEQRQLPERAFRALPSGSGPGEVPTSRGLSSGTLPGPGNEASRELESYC
Put plainly: Functional cAMP activity in the presence of 1% HSA.

Test [3] deals with hGcgR (Homo sapiens, UniProt P47871). Put plainly: Functional cAMP activation in the presence of 0.1% casein (no HSA).
Test [4] has as its target human GcgR (Homo sapiens, UniProt P47871). As to the kind of experiment: Functional cAMP activity in the presence of 1% HSA.
For test [5], the target named is T2, hGLP-1R (Homo sapiens, UniProt P43220). As to the kind of experiment: Functional cAMP activation in the presence of 0.1% casein (no HSA).
In test [6] the target is T1, hGIPR. The description is as above.
Test [7] has as its target T2, hGLP-1R. As to the kind of experiment: Functional cAMP activity in the presence of 1% HSA.
[8] abbreviates: HEK293 cells expressing SNAP-GLP-1R, read-out: GLP1R Internalization EC50.
The mark [9] stands for this setting: in the presence of 0.1% casein (no HSA), geometric mean, read-out: Relative cAMP EC50, hGcgR.
[10] abbreviates: in the presence of 0.1% casein (no HSA), geometric mean, read-out: Relative cAMP EC50, hGLP-1R.
[11] abbreviates: in the presence of 0.1% casein (no HSA), geometric mean, read-out: Relative cAMP EC50, hGIPR.
[12] abbreviates: read-out: cAMP Rel EC50, hGLP-1R.
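Throughout, for Relative cAMP EC50, hGIPR: intracellular cAMP rise after 30 min at 37 °C read by HTRF against a standard curve, scaled between buffer alone (0%) and top control ligand concentration (100%), four-parameter fit.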
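Throughout, for Relative cAMP EC50, hGLP-1R: intracellular cAMP rise after 30 min at 37 °C read by HTRF, normalized between buffer only (0%) and maximal control ligand (100%), four-parameter variable-slope fit.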
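Throughout, for Relative cAMP EC50, hGcgR: intracellular cAMP rise after 30 min at 37 °C, read by HTRF against a cAMP standard curve, scaled from buffer only (0%) to maximal control ligand response (100%).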

Sequence of human GLP1-R (P43220 24-463): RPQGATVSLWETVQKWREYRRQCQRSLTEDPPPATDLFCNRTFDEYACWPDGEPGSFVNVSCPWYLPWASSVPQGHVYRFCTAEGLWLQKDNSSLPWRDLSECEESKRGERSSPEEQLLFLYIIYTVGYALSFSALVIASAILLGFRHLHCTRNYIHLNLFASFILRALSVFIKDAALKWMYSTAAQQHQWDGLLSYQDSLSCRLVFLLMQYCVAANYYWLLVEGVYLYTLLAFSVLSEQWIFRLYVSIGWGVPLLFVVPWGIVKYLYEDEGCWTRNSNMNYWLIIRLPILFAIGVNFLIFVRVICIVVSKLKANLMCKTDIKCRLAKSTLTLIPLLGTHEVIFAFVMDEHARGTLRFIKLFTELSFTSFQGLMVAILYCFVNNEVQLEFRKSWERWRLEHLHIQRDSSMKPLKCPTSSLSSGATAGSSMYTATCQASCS
T2 sequence (P43220 24-463): as above
Sequence of human GcgR (P47871 26-477): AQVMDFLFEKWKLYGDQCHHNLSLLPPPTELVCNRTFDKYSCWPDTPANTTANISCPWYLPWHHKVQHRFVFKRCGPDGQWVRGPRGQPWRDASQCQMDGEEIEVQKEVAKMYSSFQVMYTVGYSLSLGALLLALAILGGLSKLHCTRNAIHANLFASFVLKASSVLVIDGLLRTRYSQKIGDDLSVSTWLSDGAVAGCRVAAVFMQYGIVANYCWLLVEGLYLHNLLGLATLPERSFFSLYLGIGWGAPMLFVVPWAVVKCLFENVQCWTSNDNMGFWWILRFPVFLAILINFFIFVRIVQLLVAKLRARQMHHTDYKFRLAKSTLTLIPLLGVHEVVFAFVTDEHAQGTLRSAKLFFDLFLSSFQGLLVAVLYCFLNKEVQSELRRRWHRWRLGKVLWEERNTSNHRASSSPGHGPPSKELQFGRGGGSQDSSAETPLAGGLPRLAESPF
Sequence of hGcgR (P47871 26-477): as above

By EC50 is commonly meant the concentration that produces a half-maximal response. With “H-Y[Aib]QGTFTSDFSR[αMeL]LDKK([AEEA-AEEA-γGlu-C18 diacid])AQ[Aib]AFIEYLLE[Aib]GPSSGAPPPSGS-NH2 [Example 80]”, the EC50 in test [1] was 35.8 nM; in test [2], 10.1 nM; in test [3], 7.44 nM; in test [4], 1190 nM; in test [5], 2.55 nM; in test [6], 0.0593 nM. The EC50 in test [7] turned out to be 627 nM. Further, in test [1], the “Internalization % TOP” value came to 48.2%.
Take “H-Y[Aib]QGTFTSDFS[Orn][αMeL]LDKK([AEEA-AEEA-γGlu-C18 diacid])AQ[Aib]AFIEYLLE[dA]GPSSGEPPPSGQ-NH2 [Example 157]”: the EC50 in test [1] (setting [8]) amounted to 60.3 nM; in test [2] (read-out: cAMP Rel EC50, hGIPR), 22.2 nM; in test [3] (setting [9]) it was 4.16 nM; in test [4] (read-out: cAMP Rel EC50, hGcgR), 838 nM; in test [5] (setting [10]), 3.04 nM; in test [6] (setting [11]), 0.183 nM. Further, the EC50 in test [7] (setting [12]) turned out to be 496 nM. Besides, the “Internalization % TOP” value in test [1] came to 53.3%.
For the substance “H-Y[Aib]QGTFTSDFSK[αMeL]LDKK([AEEA-γGlu-C20 diacid])AQ[Aib]AFIEYLLAGGPSSGEPPPSGS-NH2 [Example 8]”, the EC50 in test [1] (setting [8]) was found to be 63.2 nM; in test [2] (read-out: cAMP Rel EC50, hGIPR) it was 39.4 nM; in test [3] (setting [9]) it was 6.65 nM; in test [4] (read-out: cAMP Rel EC50, hGcgR) it was 1560 nM; in test [5] (setting [10]) it was 2.11 nM; in test [6] (setting [11]), 0.231 nM. Also, in test [7] (setting [12]), the EC50 turned out to be 603 nM. Also, the “Internalization % TOP” value in test [1] came to 74%.
For “H-Y[Aib]QGTFTSDFS[Orn][αMeL]LDKK([AEEA-γGlu-C18 diacid])AQ[Aib]AFIEYLLE[Aib]GPSSGAPPPSGT-NH2 [Example 200]”, the EC50 worked out at 86.1 nM in test [1] (setting [8]); 13.7 nM in test [2] (read-out: cAMP Rel EC50, hGIPR); 2.83 nM in test [3] (setting [9]); 360 nM in test [4] (read-out: cAMP Rel EC50, hGcgR); 3.19 nM in test [5] (setting [10]); 0.0739 nM in test [6] (setting [11]). Also, in test [7] (setting [12]), the EC50 was 395 nM. For the same substance, the “Internalization % TOP” value in test [1] stood at 39.2%.
With “H-Y[Aib]QGTFTSDFS[Orn][αMeL]LDKK([AEEA-γGlu-C18 diacid])AQ[Aib]AFIEWLLEGGTSSGAPPPSGS-NH2 [Example 176]”, the EC50 was 103 nM in test [1] (setting [8]); 40.7 nM in test [2] (read-out: cAMP Rel EC50, hGIPR); 4.1 nM in test [3] (setting [9]); 461 nM in test [4] (read-out: cAMP Rel EC50, hGcgR); 2.92 nM in test [5] (setting [10]); 0.212 nM in test [6] (setting [11]). In test [7] (setting [12]), the EC50 was 389 nM. Further, the “Internalization % TOP” value in test [1] is on record as 48%.
Consider “H-Y[Aib]QGTFTSDFS[Orn][αMeL]LDKK([AEEA-AEEA-γGlu-C20 diacid])AQ[Aib]AFIEYLLE[Aib]GPSSGEPPPGEG-NH2 [Example 69]”, for which the EC50 worked out at 71.9 nM in test [1] (setting [8]); 25.6 nM in test [2] (read-out: cAMP Rel EC50, hGIPR); 4.75 nM in test [3] (setting [9]); 387 nM in test [4] (read-out: cAMP Rel EC50, hGcgR); 3.25 nM in test [5] (setting [10]); 0.136 nM in test [6] (setting [11]). Moreover, the EC50 in test [7] (setting [12]) stood at 279 nM. Further, the “Internalization % TOP” value in test [1] came out at 58.2%.
As to “Y[Aib]QGTFTSDFSK[αMeL]LDKK([AEEA-γGlu-C18 diacid])AQ[Aib]QFIEYLLAGGPSSGEPPPSEG-NH2 [Example 26]”, the EC50 in test [1] (setting [8]) worked out at 96.1 nM; in test [2] (read-out: cAMP Rel EC50, hGIPR), 35.4 nM; in test [3] (setting [9]), 4.82 nM; in test [4] (read-out: cAMP Rel EC50, hGcgR) it was 980 nM; in test [5] (setting [10]), 3.44 nM; in test [6] (setting [11]), 0.2 nM. The EC50 in test [7] (setting [12]) came to 623 nM. In test [1], the “Internalization % TOP” value is 75.6%.
Take “H-Y[Aib]QGTFTSDFS[Orn][αMeL]LDKK([γGlu-AEEA-γGlu-C18 diacid])AQ[Aib]AFIEYLLE[Aib]GPSSGAPPPSGT-NH2 [Example 276]”: the EC50 in test [1] (setting [8]) amounted to 237 nM; in test [2] (read-out: cAMP Rel EC50, hGIPR), 6.28 nM; in test [3] (setting [9]) it was 2.82 nM; in test [4] (read-out: cAMP Rel EC50, hGcgR), 113 nM; in test [5] (setting [10]), 2.61 nM; in test [6] (setting [11]) it was 0.0708 nM. Further, the EC50 in test [7] (setting [12]) was 103 nM. Moreover, the “Internalization % TOP” value in test [1] worked out at 68.4%.

Source of the values: US20240270821A1, “GIP/GLP1/GCG TRI-RECEPTOR AGONISTS AND USES THEREOF” (priority 2023, published 2024).
